Reference: ChEMBL document CHEMBL4028801, “A multifactorial approach to hepatobiliary transporter assessment enables improved therapeutic compound development” (Toxicol Sci, 2013)
Blank lines part the entries; values can stand above or below the compound they belong to.

Assays:
[1] = molecular target: ATP-binding cassette sub-family C member 2 (Homo sapiens, UniProt Q92887); test: Inhibition of human MRP2 overexpressed in Sf9 cell membrane vesicles assessed as uptake of [3H]-estradiol-17beta-D-glucuronide in presence of ATP and GSH measured after 20 mins by membrane vesicle transport assay
[2] = molecular target: ATP-binding cassette sub-family C member 3 (Homo sapiens, UniProt O15438); test: Inhibition of human MRP3 overexpressed in Sf9 insect cell membrane vesicles assessed as uptake of [3H]-estradiol-17beta-D-glucuronide in presence of ATP and GSH measured after 10 mins by membrane vesicle transport assay; format: ADME, cell-based
[3] = molecular target: T1, ATP-binding cassette sub-family C member 4 (Homo sapiens, UniProt O15439); test: Inhibition of human MRP4 overexpressed in Sf9 cell membrane vesicles assessed as uptake of [3H]-estradiol-17beta-D-glucuronide in presence of ATP and GSH measured after 20 mins by membrane vesicle transport assay; format: ADME, cell-based
T1 sequence (O15439 whole entry): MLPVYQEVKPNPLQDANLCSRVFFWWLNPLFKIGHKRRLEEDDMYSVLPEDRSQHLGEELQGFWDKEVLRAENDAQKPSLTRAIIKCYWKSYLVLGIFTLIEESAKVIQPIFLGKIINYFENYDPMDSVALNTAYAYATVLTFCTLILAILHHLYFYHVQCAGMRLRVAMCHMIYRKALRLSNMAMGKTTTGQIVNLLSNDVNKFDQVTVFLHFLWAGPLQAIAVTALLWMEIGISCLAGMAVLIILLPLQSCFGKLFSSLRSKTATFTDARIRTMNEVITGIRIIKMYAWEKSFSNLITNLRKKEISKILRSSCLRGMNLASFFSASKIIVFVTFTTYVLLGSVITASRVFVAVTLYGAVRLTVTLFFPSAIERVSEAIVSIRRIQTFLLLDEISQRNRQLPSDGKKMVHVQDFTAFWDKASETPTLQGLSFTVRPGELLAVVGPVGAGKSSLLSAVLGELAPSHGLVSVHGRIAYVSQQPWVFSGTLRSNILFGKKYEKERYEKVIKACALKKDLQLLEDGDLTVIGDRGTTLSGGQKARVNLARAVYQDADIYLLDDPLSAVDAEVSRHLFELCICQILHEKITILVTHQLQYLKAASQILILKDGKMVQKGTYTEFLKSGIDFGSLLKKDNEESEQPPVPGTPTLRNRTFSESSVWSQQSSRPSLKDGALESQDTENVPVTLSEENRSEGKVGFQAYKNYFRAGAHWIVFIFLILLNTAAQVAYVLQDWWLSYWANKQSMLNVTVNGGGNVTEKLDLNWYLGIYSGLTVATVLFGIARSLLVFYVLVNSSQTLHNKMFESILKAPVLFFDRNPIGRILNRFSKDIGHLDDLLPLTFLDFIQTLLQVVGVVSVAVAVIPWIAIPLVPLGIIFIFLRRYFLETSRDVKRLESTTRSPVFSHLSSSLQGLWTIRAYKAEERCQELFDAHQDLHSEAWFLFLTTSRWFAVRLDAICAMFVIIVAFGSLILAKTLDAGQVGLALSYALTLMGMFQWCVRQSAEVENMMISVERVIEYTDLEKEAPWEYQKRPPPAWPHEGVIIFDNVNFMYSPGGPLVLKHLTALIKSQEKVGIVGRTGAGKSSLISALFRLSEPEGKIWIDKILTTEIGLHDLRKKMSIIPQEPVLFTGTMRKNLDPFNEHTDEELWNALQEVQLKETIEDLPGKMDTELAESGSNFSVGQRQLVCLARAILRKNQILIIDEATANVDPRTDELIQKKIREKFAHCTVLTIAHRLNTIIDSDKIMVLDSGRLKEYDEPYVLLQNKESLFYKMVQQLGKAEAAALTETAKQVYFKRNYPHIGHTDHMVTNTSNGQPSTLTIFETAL

[4] = AUC in human at 60 to 120 mg, po QD after 24 hrs; format: ADME, organism-based; conditions: in vivo
[5] = Drug concentration at steady state in human at 60 to 120 mg, po QD after 24 hrs; format: ADME, organism-based; conditions: in vivo, read-out: Css
[6] = Ratio of drug concentration at steady state in human at 60 to 120 mg, po QD after 24 hrs to IC50 for human BSEP overexpressed in Sf9 insect cells; format: ADME, organism-based; conditions: in vivo
[7] = Ratio of drug concentration at steady state in human at 60 to 120 mg, po QD after 24 hrs to IC50 for human MRP4 overexpressed in Sf9 insect cells; format: ADME, organism-based; conditions: in vivo
Bile salt export pump = Bile salt export pump (Homo sapiens, UniProt O95342); test: Inhibition of human BSEP overexpressed in Sf9 cell membrane vesicles assessed as uptake of [3H]-taurocholate in presence of ATP measured after 15 to 20 mins by membrane vesicle transport assay; format: ADME, cell-based
[8] = AUC in patient with chronic phase CML at 70 to 90 mg, po BID after 12 hrs; format: ADME, organism-based; conditions: human, in vivo
[9] = AUC in patient with advanced phase CML and Ph+ ALL at 100 mg, po BID after 12 hrs; format: ADME, organism-based; design: dose 100 mg, time < 12 hr, route oral; conditions: human, in vivo
[10] = Drug concentration at steady state in patient with chronic phase CML at 70 to 90 mg, po BID after 12 hrs; format: ADME, organism-based; conditions: human, in vivo, read-out: Css
[11] = Drug concentration at steady state in patient with advanced phase CML and Ph+ ALL at 100 mg, po BID after 12 hrs; format: ADME, organism-based; conditions: human, in vivo, read-out: Css
[12] = Ratio of drug concentration at steady state in patient with chronic phase CML at 70 to 90 mg, po BID after 12 hrs to IC50 for human BSEP overexpressed in Sf9 insect cells; format: ADME, organism-based; conditions: in vivo
[13] = Ratio of drug concentration at steady state in patient with advanced phase CML and Ph+ ALL at 100 mg, po BID after 12 hrs to IC50 for human BSEP overexpressed in Sf9 insect cells; format: ADME, organism-based; conditions: in vivo
[14] = Ratio of drug concentration at steady state patient with chronic phase CML at 70 to 90 mg, po BID after 12 hrs to IC50 for human MRP4 overexpressed in Sf9 insect cells; format: ADME, organism-based; conditions: in vivo
[15] = Ratio of drug concentration at steady state in patient with advanced phase CML and Ph+ ALL at 100 mg, po BID after 12 hrs to IC50 for human MRP4 overexpressed in Sf9 insect cells; format: ADME, organism-based; conditions: in vivo
[16] = AUC in human at 20 to 40 mg, iv QD after 24 hrs; format: ADME, organism-based; conditions: in vivo
Homo sapiens = test: Drug concentration at steady state in human at 20 to 40 mg, iv QD after 24 hrs; format: ADME, organism-based; conditions: in vivo
[17] = Ratio of drug concentration at steady state in human at 20 to 40 mg, iv QD after 24 hrs to IC50 for human BSEP overexpressed in Sf9 insect cells; format: ADME, organism-based; conditions: in vivo
[18] = AUC in human at 3 mg, po QD after 24 hrs; format: ADME, organism-based; design: time < 24 hr, dose 3 mg, route oral; conditions: in vivo
[19] = Drug concentration at steady state in human at 3 mg, po QD after 24 hrs; format: ADME, organism-based; conditions: in vivo, read-out: Css
[20] = Ratio of drug concentration at steady state in human at 3 mg, po after 24 hrs to IC50 for human BSEP overexpressed in Sf9 insect cells; format: ADME, organism-based; conditions: in vivo
[21] = Ratio of drug concentration at steady state in human at 3 mg, po after 24 hrs to IC50 for human MRP4 overexpressed in Sf9 insect cells; format: ADME, organism-based; conditions: in vivo

Sequence of Bile salt export pump (O95342 whole entry): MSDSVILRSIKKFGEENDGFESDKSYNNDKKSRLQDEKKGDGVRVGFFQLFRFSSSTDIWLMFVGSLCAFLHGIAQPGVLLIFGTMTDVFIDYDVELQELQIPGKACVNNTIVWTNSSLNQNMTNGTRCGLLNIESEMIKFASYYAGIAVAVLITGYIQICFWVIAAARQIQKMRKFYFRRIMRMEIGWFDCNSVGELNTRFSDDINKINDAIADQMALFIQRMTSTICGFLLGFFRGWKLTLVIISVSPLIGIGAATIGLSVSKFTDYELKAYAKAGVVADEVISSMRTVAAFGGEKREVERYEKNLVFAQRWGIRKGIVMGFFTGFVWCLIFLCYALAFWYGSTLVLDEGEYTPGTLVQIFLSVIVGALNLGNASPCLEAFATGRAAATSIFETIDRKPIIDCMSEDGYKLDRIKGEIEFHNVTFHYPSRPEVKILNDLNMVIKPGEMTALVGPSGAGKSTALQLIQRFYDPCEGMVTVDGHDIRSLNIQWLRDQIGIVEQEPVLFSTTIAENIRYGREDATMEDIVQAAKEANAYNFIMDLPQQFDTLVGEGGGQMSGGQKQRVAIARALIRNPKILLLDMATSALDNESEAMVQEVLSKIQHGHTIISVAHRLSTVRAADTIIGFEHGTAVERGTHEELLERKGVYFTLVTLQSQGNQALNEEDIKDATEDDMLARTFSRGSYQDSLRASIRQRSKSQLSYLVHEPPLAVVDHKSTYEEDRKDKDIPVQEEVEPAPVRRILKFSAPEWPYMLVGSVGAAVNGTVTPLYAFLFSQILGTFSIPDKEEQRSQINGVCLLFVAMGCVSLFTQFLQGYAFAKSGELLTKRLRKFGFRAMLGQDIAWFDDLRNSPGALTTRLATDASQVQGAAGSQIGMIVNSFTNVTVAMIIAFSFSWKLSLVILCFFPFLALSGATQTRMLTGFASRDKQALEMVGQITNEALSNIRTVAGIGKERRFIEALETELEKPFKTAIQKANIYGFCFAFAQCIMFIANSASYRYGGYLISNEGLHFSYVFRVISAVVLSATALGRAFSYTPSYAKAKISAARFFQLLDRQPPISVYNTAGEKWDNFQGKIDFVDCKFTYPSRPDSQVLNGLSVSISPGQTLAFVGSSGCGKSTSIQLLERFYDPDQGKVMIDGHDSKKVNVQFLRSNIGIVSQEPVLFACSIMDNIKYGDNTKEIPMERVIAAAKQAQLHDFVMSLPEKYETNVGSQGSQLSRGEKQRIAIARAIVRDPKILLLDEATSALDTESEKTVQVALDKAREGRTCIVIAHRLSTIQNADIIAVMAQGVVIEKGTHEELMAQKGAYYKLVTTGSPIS
Sequence of ATP-binding cassette sub-family C member 2 (Q92887 whole entry): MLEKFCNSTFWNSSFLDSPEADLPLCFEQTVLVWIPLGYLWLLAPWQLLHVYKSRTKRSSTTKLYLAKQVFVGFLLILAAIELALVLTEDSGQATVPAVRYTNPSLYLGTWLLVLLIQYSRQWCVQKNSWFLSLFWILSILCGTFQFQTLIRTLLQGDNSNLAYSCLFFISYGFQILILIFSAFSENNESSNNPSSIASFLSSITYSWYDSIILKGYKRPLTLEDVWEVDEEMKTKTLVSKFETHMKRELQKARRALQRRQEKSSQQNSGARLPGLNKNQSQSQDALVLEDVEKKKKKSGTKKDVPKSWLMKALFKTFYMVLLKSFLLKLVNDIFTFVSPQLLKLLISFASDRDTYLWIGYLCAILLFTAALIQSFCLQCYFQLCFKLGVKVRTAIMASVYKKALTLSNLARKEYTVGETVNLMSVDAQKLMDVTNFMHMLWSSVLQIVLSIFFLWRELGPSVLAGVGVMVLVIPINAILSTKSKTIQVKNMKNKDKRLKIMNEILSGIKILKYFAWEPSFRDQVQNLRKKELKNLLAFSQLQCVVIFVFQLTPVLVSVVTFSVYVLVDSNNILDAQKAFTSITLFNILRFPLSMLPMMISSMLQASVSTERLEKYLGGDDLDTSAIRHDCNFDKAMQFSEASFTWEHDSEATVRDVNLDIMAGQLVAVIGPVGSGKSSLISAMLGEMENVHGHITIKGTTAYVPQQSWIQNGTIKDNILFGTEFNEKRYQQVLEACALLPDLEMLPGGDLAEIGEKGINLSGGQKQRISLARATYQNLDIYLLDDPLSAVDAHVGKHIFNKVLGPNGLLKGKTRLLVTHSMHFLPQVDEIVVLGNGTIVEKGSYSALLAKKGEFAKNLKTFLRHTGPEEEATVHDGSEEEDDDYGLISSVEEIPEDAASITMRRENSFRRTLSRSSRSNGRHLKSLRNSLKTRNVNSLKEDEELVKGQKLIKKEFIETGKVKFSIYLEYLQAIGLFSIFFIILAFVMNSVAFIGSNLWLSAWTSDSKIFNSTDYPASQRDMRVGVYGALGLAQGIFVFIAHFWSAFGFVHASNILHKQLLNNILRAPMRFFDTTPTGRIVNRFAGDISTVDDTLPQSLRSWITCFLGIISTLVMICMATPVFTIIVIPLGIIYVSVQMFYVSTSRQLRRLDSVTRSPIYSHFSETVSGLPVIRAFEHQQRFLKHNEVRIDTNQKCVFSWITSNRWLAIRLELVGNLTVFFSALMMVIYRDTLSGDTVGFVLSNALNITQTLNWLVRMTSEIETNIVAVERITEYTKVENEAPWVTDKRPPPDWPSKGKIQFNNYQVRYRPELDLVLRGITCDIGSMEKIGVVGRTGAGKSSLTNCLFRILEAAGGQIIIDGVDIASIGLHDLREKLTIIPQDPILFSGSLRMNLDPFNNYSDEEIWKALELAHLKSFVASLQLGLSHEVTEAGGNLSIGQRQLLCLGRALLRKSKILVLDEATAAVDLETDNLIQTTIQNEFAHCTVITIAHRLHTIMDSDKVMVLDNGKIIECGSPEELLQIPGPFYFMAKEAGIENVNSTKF
Sequence of ATP-binding cassette sub-family C member 3 (O15438 whole entry): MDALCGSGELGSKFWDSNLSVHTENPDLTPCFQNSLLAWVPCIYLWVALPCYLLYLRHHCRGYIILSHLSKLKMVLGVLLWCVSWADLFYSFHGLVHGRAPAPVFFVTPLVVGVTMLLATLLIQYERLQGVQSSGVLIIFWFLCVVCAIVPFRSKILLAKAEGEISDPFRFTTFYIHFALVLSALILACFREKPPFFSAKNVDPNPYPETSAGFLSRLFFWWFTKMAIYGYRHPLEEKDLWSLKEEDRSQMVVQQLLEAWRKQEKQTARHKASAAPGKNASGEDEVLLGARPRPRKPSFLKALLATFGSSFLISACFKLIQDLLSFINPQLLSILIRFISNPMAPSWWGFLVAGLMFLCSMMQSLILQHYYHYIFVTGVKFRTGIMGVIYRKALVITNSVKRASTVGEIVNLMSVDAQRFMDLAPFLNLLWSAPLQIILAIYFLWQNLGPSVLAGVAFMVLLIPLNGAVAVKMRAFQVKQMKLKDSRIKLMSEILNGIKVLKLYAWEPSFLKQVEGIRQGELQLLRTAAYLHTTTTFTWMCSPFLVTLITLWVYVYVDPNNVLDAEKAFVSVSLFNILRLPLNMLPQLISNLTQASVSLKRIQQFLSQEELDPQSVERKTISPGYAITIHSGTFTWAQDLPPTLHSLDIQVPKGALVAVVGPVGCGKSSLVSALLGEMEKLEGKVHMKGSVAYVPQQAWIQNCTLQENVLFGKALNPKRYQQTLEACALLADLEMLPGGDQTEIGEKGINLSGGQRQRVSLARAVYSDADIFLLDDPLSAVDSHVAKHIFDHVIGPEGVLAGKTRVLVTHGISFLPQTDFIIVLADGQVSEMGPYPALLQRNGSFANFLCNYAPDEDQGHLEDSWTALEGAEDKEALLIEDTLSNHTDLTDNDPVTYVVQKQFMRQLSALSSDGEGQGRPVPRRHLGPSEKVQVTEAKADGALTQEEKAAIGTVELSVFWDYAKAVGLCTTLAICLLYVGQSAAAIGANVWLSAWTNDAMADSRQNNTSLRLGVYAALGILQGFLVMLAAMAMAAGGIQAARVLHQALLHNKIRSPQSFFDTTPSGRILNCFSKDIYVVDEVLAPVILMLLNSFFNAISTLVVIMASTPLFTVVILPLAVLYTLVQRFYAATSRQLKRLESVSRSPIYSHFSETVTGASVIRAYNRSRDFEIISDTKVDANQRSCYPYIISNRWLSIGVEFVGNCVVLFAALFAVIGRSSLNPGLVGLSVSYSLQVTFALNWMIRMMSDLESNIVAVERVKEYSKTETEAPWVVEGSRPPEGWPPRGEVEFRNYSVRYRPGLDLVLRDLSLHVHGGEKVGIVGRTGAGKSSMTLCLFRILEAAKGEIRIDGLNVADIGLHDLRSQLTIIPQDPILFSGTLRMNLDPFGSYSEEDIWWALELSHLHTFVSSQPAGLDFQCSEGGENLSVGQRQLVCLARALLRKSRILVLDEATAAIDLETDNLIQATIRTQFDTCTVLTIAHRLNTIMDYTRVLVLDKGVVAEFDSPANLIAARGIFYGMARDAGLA

IC50 [1]: > 133 µM
IC50 [2]: > 133 µM
IC50 [3]: 88 µM
AUC at 24 h [4]: 720 nM·h
concentration at 24 h [5]: 0.03 µM
Ratio [7]: 0
SMILES: COC(=O)C1=C(C)NC(C)=C(C(=O)OCCN(C)Cc2ccccc2)C1c1cccc([N+](=O)[O-])c1 (stereo not drawn) [NICARDIPINE]
Ratio [6]: 0.004

SMILES: Cc1nc(Nc2ncc(C(=O)Nc3c(C)cccc3Cl)s2)cc(N2CCN(CCO)CC2)n1.O [DASATINIB]
IC50 (Bile salt export pump): 13.1 µM
IC50 [1]: > 133 µM
IC50 [2]: > 133 µM
IC50 [3]: 27.3 µM
AUC at 12 h [8]: 624 nM·h
AUC at 12 h [9]: 624 nM·h
concentration at 12 h [10]: 0.052 µM
concentration at 12 h [11]: 0.052 µM
Ratio [12]: 0.004
Ratio [13]: 0.004
Ratio [14]: 0.002
Ratio [15]: 0.002

IC50 [1]: > 133 µM
IC50 [2]: > 133 µM
IC50 [3]: > 133 µM
AUC at 24 h [16]: 11200 nM·h
Css (Homo sapiens): 0.4682 µM
SMILES: COc1ccc2[nH]c([S+]([O-])Cc3ncc(C)c(OC)c3C)nc2c1 (stereo not drawn) [OMEPRAZOLE]
IC50 (Bile salt export pump): 99 µM
Ratio [17]: 0.005

IC50 [2]: > 133 µM
IC50 [3]: 37.9 µM
AUC at 24 h [18]: 2180 nM·h
concentration at 24 h [19]: 0.091 µM
Ratio [21]: 0.002
SMILES: C[C@]12CCC(=O)C=C1[C@@H]1C[C@@H]1[C@H]1[C@@H]3[C@@H]4C[C@@H]4[C@@]4(CCC(=O)O4)[C@@]3(C)CC[C@@H]12 [DROSPIRENONE]
IC50 (Bile salt export pump): 16.4 µM
Ratio [20]: 0.006
